Reference: publication PMC2809102, “Two New Pimelic Diphenylamide HDAC Inhibitors Induce Sustained Frataxin Upregulation in Cells from Friedreich's Ataxia Patients and in a Mouse Model” (PLoS ONE, 2010)

How the values were obtained:
[1] = test system: frataxin mRNA in KIKI splenocytes; test: Fxn mRNA by qRT-PCR in unstimulated KIKI mouse splenocytes; format: cell-based; settings: 10 µM, 48 hours
[2] = test system: frataxin in brain and heart of wild-type mice; set-up: method as in PMID 16921367; settings: cited from earlier work
[3] = test system: frataxin mRNA in PBMC from FRDA patients; test: FXN mRNA by quantitative real-time RT-PCR in unstimulated PBMC from FRDA patients; format: cell-based, human; settings: 10 µM
[4] = Levels of compound in mouse brain and plasma after single injection; format: in vivo; settings: single 150 mg/Kg injection
FXN gene expression = test system: FXN gene expression; set-up: method as in PMID 16921367, PMID 18463734; settings: FRDA patient cells; cited from earlier work
[5] = test system: FXN mRNA in healthy volunteers PBMCs; test: FXN mRNA by qRT-PCR in PBMCs from healthy volunteers; format: cell-based, human; settings: 10 µM, 48 h
[6] = test system: histone acetylation H3K14 and H4K5 at fxn gene; test: ChIP of H3K14 and H4K5 acetylation upstream of GAA repeat in KIKI mouse brain; format: in vivo; settings: KIKI mice, 50 or 150 mg/kg s.c.
[7] = test system: frataxin mRNA in brain and heart of KIKI mice; test: Fxn mRNA by qRT-PCR in brain and heart of KIKI mice after single subcutaneous injection; format: in vivo, mouse

SMILES: Cc1ccc(NC(=O)CCCCCC(=O)Nc2ccccc2N)cc1 [compound 106, N ^1-(2-aminophenyl)-N ^7-p-tolylheptanediamide, reference compound]
- frataxin mRNA upregulation in mouse splenocytes [1]: significant
- frataxin upregulation in brain and heart of wild-type mice [2]: no frataxin upregulation
- increase of frataxin mRNA levels, average ([3]; 48-hour incubation, average of patients, DMSO = 1): 3.6 fold

SMILES: Cc1ccc(C(=O)NCCCCCC(=O)Nc2ccccc2N)cc1 [compound 109]
- time to total elimination from brain and plasma [4]: < 4 h

SMILES: CC(/C=C/C(=O)NO)=C\[C@@H](C)C(=O)c1ccc(N(C)C)cc1 [TSA, trichostatin A]
- effect on FXN gene expression (FXN gene expression): inactive

SMILES: Cc1ccc(C(=O)NCCCCCC(=O)Nc2ccc(F)cc2N)cc1 [compound 136]
- frataxin mRNA upregulation in mouse splenocytes [1]: significant
- FXN mRNA in healthy volunteers PBMCs [5]: not overall significantly affected
- FXN mRNA trend in healthy volunteers PBMCs ([5]; non-significant): trend toward downregulation
- effect on frataxin mRNA ([3]; 48 h, compared to 10 µM compound 106): limited effect
- histone acetylation H3K14 and H4K5 upstream of GAA repeat, brain [6]: increase in histone acetylation
- frataxin mRNA in brain ([7]; single s.c. 150 mg/kg, 24 hours after injection): increase in frataxin mRNA in the brain to wild-type levels
- Fxn mRNA in heart ([7]; single s.c. dose, only at 50 or 150 mg/kg (not 5, 15), p = 0.009 and 0.008): significantly increased
- Fxn mRNA in brain ([7]; single s.c. dose, only at 50 or 150 mg/kg (not 5, 15), p<0.001): significantly increased

SMILES: O=C(CCCCCCC(=O)Nc1ccccc1)NO [SAHA, suberoylanilide hydroxamic acid]
- effect on FXN gene expression (FXN gene expression): inactive

SMILES: Nc1ccccc1NC(=O)CCCCCCC(=O)Nc1ccccc1 [BML-210]
- effect on FXN gene expression (FXN gene expression): relieve repression of the FXN gene
